One may read the EC50 as the midpoint of the concentration-response curve.

The values that follow come from ChEMBL document CHEMBL5727878, “Triazole furan compounds as agonists of the APJ receptor” (2020).

Values joined by “and” are separate entries in the source; they are usually repeats but may differ in a detail not shown here. Identical values can stand only once.

The experiment has as its target T1, Apelin receptor (Homo sapiens, UniProt P35414).
T1 sequence (P35414 whole entry): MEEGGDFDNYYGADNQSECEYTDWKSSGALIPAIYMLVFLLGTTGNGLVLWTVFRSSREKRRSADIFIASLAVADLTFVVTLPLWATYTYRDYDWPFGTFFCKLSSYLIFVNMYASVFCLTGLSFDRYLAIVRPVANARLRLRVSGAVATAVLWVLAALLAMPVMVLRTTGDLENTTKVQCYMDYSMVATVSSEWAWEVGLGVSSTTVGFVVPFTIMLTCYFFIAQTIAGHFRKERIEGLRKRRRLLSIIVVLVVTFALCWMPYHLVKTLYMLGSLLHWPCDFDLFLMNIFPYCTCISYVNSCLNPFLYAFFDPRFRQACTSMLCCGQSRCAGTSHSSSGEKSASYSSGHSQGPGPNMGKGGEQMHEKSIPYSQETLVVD
The experiment can be described thus: GTPγS Binding: The human APJ receptor was cloned by polymerase chain reaction and the gene encoding the receptor was subcloned in pFLAG-CMV-3 expression vector (Sigma, Saint Louis, Mo. USA) in-house at Amgen. A GTPγS binding assay was performed on membranes prepared from CHO cells stably expressing human APJ receptor. The optimum experimental conditions for the concentrations of GDP, MgCl2, and NaCl in the assay buffer were initially determined. The assay was performed in assay buffer [20 mM HEPES, pH 7.5, 5 mM MgCl2, and 0.1% (w/v) BSA with 200 mM NaCl, 3 μM GDP] and membranes expressing human APJ receptor/well along with WGA PS beads. The reaction was initiated by addition of 0.2 nM [35S]GTPγS in the absence or presence of various ligands and incubated at RT for 90 min. Nonspecific binding was determined in the presence of 100 μM GTPγS and was always less than 0.2% of total binding.
Turning to `COc1cccc(OC)c1-n1c(NS(=O)(=O)CCc2ccc(F)cn2)nnc1-c1ccco1`, the EC50 came out at 12000 pM.
For the compound `COc1cccc(OC)c1-n1c(NS(=O)(=O)[C@@H](C)[C@@H](O)c2cccc3ccnn23)nnc1-c1ccc(C)o1`, the concentration for a half-maximal effect (EC50) is 790 pM and 870 pM.
The figure for `COc1cccc(OC)c1-n1c(NS(=O)(=O)CCc2ncc(F)cn2)nnc1-c1ccco1` is 3200 pM.
The figure for `COc1cccc(OC)c1-n1c(NS(=O)(=O)CCc2ncc(Cl)cc2C2=CCN(C(C)=O)CC2)nnc1-c1ccco1` is 320 pM; for `COCn1cnc2c(C[C@H](C)S(=O)(=O)Nc3nnc(-c4ccco4)n3-c3c(OC)cccc3OC)ncc(F)c21` (mixture of isomers) it is 770 pM; for `COc1cccc(OC)c1-n1c(NS(=O)(=O)[C@H](C)[C@@H](O)c2cc3ccccn3n2)nnc1-c1ccc(C)o1` (mixture of isomers) it is 650 pM.
In the case of `COc1cccc(OC)c1-n1c(NS(=O)(=O)[C@H](C)[C@H](O)c2cscn2)nnc1-c1ccc(C)o1` (mixture of isomers), the EC50 was 16000 pM.
As for `COc1cccc(OC)c1-n1c(NS(=O)(=O)[C@@H]2C[C@@H](C(=O)N3CCC3)CN(c3ncc(F)cn3)C2)nnc1-c1ccc(C)o1` (mixture of isomers), the figure is 320 pM.
As for `COc1cccc(OC)c1-n1c(NS(=O)(=O)[C@@H](C)Cc2ncc(F)cc2N2C[C@H](O)CC2=O)nnc1-c1ccco1` (mixture of isomers), the figure is 610 pM.
The figure for `COc1cccc(OC)c1-n1c(NS(=O)(=O)C[C@H](O)c2ccc(F)cn2)nnc1-c1ccc(C)o1` (mixture of isomers) is 170 pM; for `COc1cccc(OC)c1-n1c(NS(=O)(=O)[C@H](C)Cc2ncc(F)cn2)nnc1-c1ccco1` (mixture of isomers) it is 290 pM.
With `COc1cccc(OC)c1-n1c(NS(=O)(=O)[C@H]2C[C@@H](C(=O)N3CCC3)CN(c3ncc(F)cn3)C2)nnc1-c1ccc(C)o1` (mixture of isomers), the concentration giving a half-maximal response (EC50) came out at 350 pM.
The figure for `COc1cccc(OC)c1-n1c(NS(=O)(=O)[C@@H](C)[C@H](OC)c2ccc(C#N)cc2C#N)nnc1-c1ccc(C)o1` (mixture of isomers) is 210 pM; for `COc1cccc(OC)c1-n1c(NS(=O)(=O)[C@H]2CCC[C@@H]2c2ncc(F)cn2)nnc1-c1ccc(C)o1` (mixture of isomers) it is 2000 pM; for `COc1ncnc(OC)c1-n1c(NS(=O)(=O)[C@@H](C)Cc2ncc(F)cn2)nnc1-c1ccc(C)o1` (mixture of isomers) it is 3000 pM.
As for `COc1cccc(OC)c1-n1c(NS(=O)(=O)C[C@@](C)(O)c2ncc(C#N)cn2)nnc1-c1ccc(C)o1` (mixture of isomers), the figure is 650 pM; as for `COc1cccc(OC)c1-n1c(NS(=O)(=O)[C@@H](C)[C@H](C)c2cnc(C)c[n+]2[O-])nnc1-c1ccc(C)o1` (mixture of isomers), 140 pM.
As for `COc1cccc(OC)c1-n1c(NS(=O)(=O)[C@H](C)[C@@H](O)c2ccnc3c2OCCC3)nnc1-c1ccc(C)o1` (mixture of isomers), the figure is 13000 pM; as for `COc1cccc(OC)c1-n1c(NS(=O)(=O)[C@@H](C)[C@@H](OC)c2cn3ccccc3n2)nnc1-c1ccc(C)o1` (mixture of isomers), 960 pM; as for `COc1cccc(OC)c1-n1c(NS(=O)(=O)[C@@H](C)[C@H](O)c2cscn2)nnc1-c1ccc(C)o1` (mixture of isomers), 1200 pM.
Regarding `Cc1ccc(-c2nnc(NS(=O)(=O)[C@@H](C)Cc3ncc(F)cn3)n2C2CCCC2)o1` (mixture of isomers), the EC50 came out at 270000 pM.
As for `COc1cnc([C@@H](O)[C@H](C)S(=O)(=O)Nc2nnc(-c3ccc(C)o3)n2-c2c(OC)cccc2OC)cn1` (mixture of isomers), the figure is 250 pM.
As for `CCc1ccc(-c2nnc(NS(=O)(=O)[C@@H](C)Cc3ncc(F)cn3)n2-c2c(OC)cccc2OC)o1` (mixture of isomers), the figure is 130 pM; as for `COc1cccc(OC)c1-n1c(NS(=O)(=O)[C@@H]2CCCC[C@H]2c2ncc(F)cn2)nnc1-c1ccco1` (single isomer, unassigned), 30000 pM.
Consider `COc1cccc(OC)c1-n1c(NS(=O)(=O)[C@@H]2C[C@H](c3ccc(F)cc3)CN(C(C)=O)C2)nnc1-c1ccc(C)o1` (single isomer, unassigned), for which the EC50 worked out at 1100 pM.
As for `COc1cccc(OC)c1-n1c(NS(=O)(=O)[C@H](C)[C@](C)(O)c2ncc(F)cn2)nnc1-c1ccc(C)o1` (single isomer, unassigned), the figure is 570 pM; as for `COc1cccc(OC)c1-n1c(NS(=O)(=O)[C@@H]2C[C@@H](c3ccc(F)cc3)CN(C(C)=O)C2)nnc1-c1ccc(C)o1` (single isomer, unassigned), 750 pM.
As for `COc1cccc(OC)c1-n1c(NS(=O)(=O)[C@@H](C)[C@@H](OCCO)c2ncc(C)cn2)nnc1-c1ccc(C)o1` (single isomer, unassigned), the figure is 150 pM; as for `COc1cccc(OC)c1-n1c(NS(=O)(=O)C[C@H](O)c2ccc(Cl)cc2S(C)(=O)=O)nnc1-c1ccc(C)o1` (single isomer, unassigned), 90 pM; as for `COc1cccc(OC)c1-n1c(NS(=O)(=O)[C@H]2CCCN(c3ncc(F)cn3)C2)nnc1-c1ccc(C)o1` (single isomer, unassigned), 3200 pM.
As for `COc1cccc(OC)c1-n1c(NS(=O)(=O)[C@@H](C)Cc2ncc(F)c3[nH]cnc23)nnc1-c1ccco1` (single isomer, unassigned), the figure is 28000 pM.
With `COc1cccc(OC)c1-n1c(NS(=O)(=O)[C@H](C)[C@@H](O)c2cnc(C)cn2)nnc1-c1ccc(C)o1` (single isomer, unassigned), the EC50 was determined as 1500 pM.
The figure for `CCc1cnc([C@@H](C)[C@H](C)S(=O)(=O)Nc2nnc(-c3ccc(C)o3)n2-c2c(OC)cccc2OC)nc1` (single isomer, unassigned) is 3400 pM; for `COc1cccc(OC)c1-n1c(NS(=O)(=O)[C@H]2COC[C@@H]2c2ncc(F)cn2)nnc1-c1ccco1` (single isomer, unassigned) it is 28000 pM; for `COc1cccc(OC)c1-n1c(NS(=O)(=O)C[C@H](O)c2ccc(F)cn2)nnc1-c1ccc(C)o1` (single isomer, unassigned) it is 290 pM.
The figure for `COc1cccc(OC)c1-n1c(NS(=O)(=O)[C@@H](C)[C@@H](O)c2ncn3ccccc23)nnc1-c1ccc(C)o1` (single isomer, unassigned) is 1400 pM; for `COC[C@@H]1CCCC(=O)N1CCS(=O)(=O)Nc1nnc(-c2ccco2)n1-c1c(OC)cccc1OC` (single isomer, unassigned) it is 2100 pM.
As for `COC[C@H]1CCCC(=O)N1C[C@@H](C)S(=O)(=O)Nc1nnc(-c2ccc(C)o2)n1-c1c(OC)cccc1OC` (single isomer, unassigned), the figure is 480 pM; as for `COc1cccc(OC)c1-n1c(NS(=O)(=O)[C@@H](C)[C@@H](O)c2coc(C)n2)nnc1-c1ccc(C)o1` (single isomer, unassigned), 8300 pM.
Take `COc1cccc(OC)c1-n1c(NS(=O)(=O)CCN2C(=O)CCC[C@@H]2C)nnc1-c1ccco1` (single isomer, unassigned): the EC50 stood at 1000 pM.
As for `COc1cccc(OC)c1-n1c(NS(=O)(=O)[C@@H]2CCC[C@H]2c2ncc(F)cn2)nnc1-c1ccc(C)o1` (single isomer, unassigned), the figure is 2800 pM.
As for `COc1cccc(OC)c1-n1c(NS(=O)(=O)C[C@@H](C)c2ncc(C)cn2)nnc1-c1ccco1` (single isomer, unassigned), the figure is 6700 pM.
The figure for `COc1cccc(OC)c1-n1c(NS(=O)(=O)[C@@H](C)Cc2ncc(Br)cn2)nnc1-c1ccco1` (single isomer, unassigned) is 310 pM; for `COc1cccc(OC)c1-n1c(NS(=O)(=O)[C@H](C)Cc2ncc(F)cc2NC(C)=O)nnc1-c1ccco1` (single isomer, unassigned) it is 210 pM.
With `COc1cccc(OC)c1-n1c(NS(=O)(=O)[C@@H](C)[C@@H](O)c2ncc(F)cn2)nnc1-c1ccc(C)o1` (single isomer, unassigned), the EC50 stood at 320 pM.
For `COc1cccc(OC)c1-n1c(NS(=O)(=O)[C@@H](C)[C@H](O)c2cc3n(n2)CCCO3)nnc1-c1ccc(C)o1` (single isomer, unassigned), the EC50 is 1200 pM.
Consider `COc1cccc(OC)c1-n1c(NS(=O)(=O)[C@@H](C)[C@@H](O)c2cnc3ccccn23)nnc1-c1ccc(C)o1` (single isomer, unassigned), for which the EC50 was determined as 960 pM.
On to `COc1cccc(OC)c1-n1c(NS(=O)(=O)[C@@H](C)[C@H](O)c2cc3ccccn3n2)nnc1-c1ccc(C)o1` (single isomer, unassigned), for which the EC50 worked out at 3700 pM.
As for `COc1cccc(OC)c1-n1c(NS(=O)(=O)[C@H]2CCCC[C@H]2c2ncc(F)cn2)nnc1-c1ccco1` (single isomer, unassigned), the EC50 is 4500 pM.
The figure for `COc1cccc(OC)c1-n1c(NS(=O)(=O)[C@@H](C)[C@@H](O)c2cn3ccccc3n2)nnc1-c1ccc(C)o1` (single isomer, unassigned) is 1000 pM; for `COc1cccc(OC)c1-n1c(NS(=O)(=O)CCN2C(=O)N(C)CC[C@H]2C)nnc1-c1ccco1` (single isomer, unassigned) it is 700 pM; for `COc1cccc(OC)c1-n1c(NS(=O)(=O)[C@@H](C)Cc2ncc(F)c3c2ncn3C)nnc1-c1ccco1` (single isomer, unassigned) it is 980 pM.
